Drawing on PubChem BioAssay (NCI), this text covers TGI and GI50 for two molecules.

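The compound was tested at five concentrations on cells cultured in 96-well plates, with a 48-hour exposure period. GI50 is the concentration that inhibits growth by half. TGI is the concentration that stops growth completely.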 Where only a bound is given, the exact number is not on record here.

Test systems include UACC-62 melanoma; HCT-116 colon; SN12C renal; SNB-19 CNS; IGROV1 ovarian; RPMI-8226 leukemia; TK-10 renal; OVCAR-8 ovarian; SK-MEL-28 melanoma; HT29 colon.
What all share (experiment): growth of human tumour cells (NCI), 48 h

For `CN(C)c1ccc(C(N)=O)cn1`, the TGI in the assay with UACC-62 melanoma, in the assay with HCT-116 colon, in the assay with SN12C renal, in the assay with SNB-19 CNS, with IGROV1 ovarian and in the assay on RPMI-8226 leukemia was greater than 100 µM throughout. The TGI with TK-10 renal, with OVCAR-8 ovarian, in the assay with SK-MEL-28 melanoma and in the assay on HT29 colon was greater than 100 µM each time.
With `Oc1cc(Cl)ccc1Oc1ccc(Cl)cc1Cl`, the GI50 in the assay with UACC-62 melanoma was 2.16 µM; with HCT-116 colon it was 2.55 µM; in the assay with SN12C renal, 3.12 µM; in the assay on SNB-19 CNS, 3.66 µM; in the assay with IGROV1 ovarian it was 4.73 µM; in the assay on RPMI-8226 leukemia it was 2.02 µM. For the same molecule, the GI50 in the assay with TK-10 renal was 3.47 µM; in the assay on OVCAR-8 ovarian it was 2.81 µM; in the assay on SK-MEL-28 melanoma, 3.09 µM; in the assay on HT29 colon, 3.27 µM. Also, the TGI in the assay with UACC-62 melanoma was 5 µM; with HCT-116 colon, 6.43 µM; with SN12C renal, 11.4 µM; with SNB-19 CNS it was 13.7 µM; in the assay on IGROV1 ovarian, 17 µM; with RPMI-8226 leukemia, 5.7 µM. The TGI was found to be 9.59 µM in the assay on TK-10 renal, 9.18 µM with OVCAR-8 ovarian, 10.4 µM in the assay on SK-MEL-28 melanoma and 10.2 µM in the assay with HT29 colon.
